Test results from US6180640A, “Di- and tetra-hydroquinoline-indole antimicrobial agents, uses and compositions related thereto” (Sepracor, Inc., priority 1999, dated 2001).
Like-named read-outs stand apart in the source and are kept apart here.

What was measured:
[1] = in vivo; design: species or system mice; settings: mouse, ip
Description: Solutions of compounds in 10% w/v hydroxypropyl-β-cyclodextrin in 0.9% w/v saline were prepared. A dose of 40 mg/kg or 120 mg/kg of each compound was administered to mice (5 mice/compound/dose) via intraperitoneal injections.

[2] = Pharmacokinetics in rats after i.v. dosing: plasma and tissue content; type: in vivo; settings: 3.6 mg/kg i.v.; for concentration at 4 h: 3.6 mg/kg, liposomal
Description: The pharmacokinetics of the compound were evaluated in two rats after dosing at 3.6 mg/kg i.v using a liposomal formulation (1.8 mg/mL). […] Maximum concentrations of approximately 450 ng/ml were attained in plasma. […] Data on the accumulation of the compound in various tissues of the rats is contained in the table below.

[3] = tested on: methicillin-resistant Staphylococcus aureus; assay: Topical treatment of infected partial thickness wounds in pigs; type: in vivo, methicillin-resistant Staphylococcus aureus; pigs; settings: pig wounds, 200 mg of 2% w/w in PEG
Description: This Example establishes the efficacy of an antibacterial compound of the present invention in the topical treatment of methicillin-resistant Staphylococcus aureus infections. Partial thickness wounds were made on properly anesthetized young, specific pathogen free female pigs (SPF; Ken-O-Kaw Frams, Windsor, Ill.) weighing 25-30 kg. The wounds were inoculated with methicillin-resistant Staphylococcus aureus (~10^6 CFU/mL). Within 10 minutes of inoculation 200 mg of test compound [2% w/w in polyethylene glycol (PEG)] was applied to each wound. Wounds were cultured on days 1, 2, and 3. Each site was cultured only once. The culture sample was treated with a neutralizer for the antimicrobial active ingredient. The samples were processed as is known in the art to determine the number of colony forming units per mL.

`Clc1ccc2c(c1)[C@H]1OCC[C@H]1[C@@H](c1c[nH]c3ccc(Br)cc13)N2` (relative stereo) gave a survival at 168 h ([1]; 40 mg/kg) of 100% and a survival at 168 h ([1]; 120 mg/kg) of 100%.
`Clc1ccc2c(c1)[C@H]1OCC[C@H]1[C@H](c1c[nH]c3ccc(Br)cc13)N2` (relative stereo) showed a survival at 168 h ([1]; 40 mg/kg) of 100% and a survival at 168 h ([1]; 120 mg/kg) of 100%.
Work on `Brc1ccc2[nH]cc([C@H]3Nc4ccc(C#CCN5CCCCC5)cc4[C@H]4OCC[C@@H]34)c2c1` (relative stereo) [drawing 54] yielded a concentration at 4 h ([2]; rat, brain, iv, rat 1, 4 h post dose, read-out: Compound Content in Brain) of 400 ng/g, a concentration at 4 h ([2]; rat, brain, iv, rat 2, 4 h post dose, read-out: Compound Content in Brain) of 400 ng/g and a concentration at 4 h ([2]; rat, kidney, iv, rat 1, 4 h post dose, read-out: Compound Content in Kidney) of 1300 ng/g. For the same compound, the concentration at 4 h ([2]; rat, kidney, iv, rat 2, 4 h post dose, read-out: Compound Content in Kidney) was 2200 ng/g, the concentration at 4 h ([2]; rat, liver, iv, rat 1, 4 h post dose, read-out: Compound Content in Liver) was 3200 ng/g and the concentration at 4 h ([2]; rat, liver, iv, rat 2, 4 h post dose, read-out: Compound Content in Liver) was 3000 ng/g. For the same compound, the concentration at 4 h ([2]; rat, lung, iv, rat 1, 4 h post dose, read-out: Compound Content in Lung) was 12100 ng/g, the concentration at 4 h ([2]; rat, lung, iv, rat 2, 4 h post dose, read-out: Compound Content in Lung) was 10900 ng/g and the concentration at 4 h ([2]; rat, parietal peritoneum, iv, rat 1, 4 h post dose, read-out: Compound Content in Parietal Peritoneum) was 1300 ng/g. For the same compound, the concentration at 4 h ([2]; rat, parietal peritoneum, iv, rat 2, 4 h post dose, read-out: Compound Content in Parietal Peritoneum) was 1600 ng/g, the Cmax ([2]; rat, plasma, iv, rats, liposomal formulation (1.8 mg/mL), read-out: Maximum concentrations in plasma) was roughly 450 ng/mL and the concentration at 4 h ([2]; rat, thigh muscle, iv, rat 2, 4 h post dose, read-out: Compound Content in Thigh Muscle) was 700 ng/g. The “tolerability of the dose” value ([2]; rats, liposomal formulation) was “well tolerated” and the “decline of plasma concentrations” value ([2]; rats, liposomal formulation, two-compartment open model) was “declined biexponentially”.
In the case of `Brc1ccc2[nH]cc([C@H]3Nc4ccc(C#CCN5CCCCC5)cc4[C@H]4OCC[C@@H]34)c2c1` (relative stereo) [drawing 55], the “Log CFU/mL (mean ± SE)” value ([3]; 24 h) was 5.92 Log CFU/mL, the “Log CFU/mL (mean ± SE)” value ([3]; 48 h) was 5.83 Log CFU/mL and the “Log CFU/mL (mean ± SE)” value ([3]; 72 h) was 5.66 Log CFU/mL.
